Data set [1] can be described thus: Pharmacokinetic study in Sprague-Dawley rats. The following applies: for CL (systemic clearance) / Vss (volume of distribution following intravenous dosing): IV, […] (1h, 2r), 5 mg/kg (5Ha, 5Hc); for F (percent oral bioavailability), rat: rats, PO versus IV.
The next data set deals with DU 145. Nature of the data set: SRB cytotoxicity assay, DU 145 prostate cancer cells. In kind it is cell-based. The following applies: Homo sapiens. The source says:
(§1) Cells were stained with SRB solution.

A further data set has as its system PC-3. The experiment in a line: SRB cytotoxicity assay, PC-3 prostate cancer cells. In kind it is cell-based, human. As to conditions: Homo sapiens, PC-3.
Excerpt: as §1

In another data set the test system is LNCaP. Nature of the data set: SRB cytotoxicity assay, LNCaP prostate cancer cells. The following applies: Homo sapiens, LNCaP. Type of data set: cell-based, human.
Excerpt: as §1

The next data set concerns PPC-1. The experiment in a line: SRB cytotoxicity assay, PPC-1 prostate cancer cells. Type of data set: cell-based, human. The following applies: Homo sapiens, PPC-1.
Excerpt: as §1

Data set [2] concerns melanoma and prostate cancer cell lines. Nature of the data set: SRB cytotoxicity, summary or average over melanoma and prostate cancer cell lines. In kind it is cell-based. The following applies: 2e-cis vs 2e-trans; 12jb vs 12kb.
Data set [3] can be described thus: Metabolic stability in human liver microsomes.
Where [4] appears, read: Table 13B, read-out: inhibitory effects DU145.
[5] abbreviates: Table 13B, read-out: inhibitory effects PC3.
[6] abbreviates: Table 13B, read-out: inhibitory effects LNCaP.
[7] abbreviates: Table 13B, read-out: inhibitory effects PPC1.
Setting [8] is: Table 13A, read-out: inhibitory effects DU145.
The mark [9] stands for this setting: Table 13A, read-out: inhibitory effects PC3.
Setting [10] is: Table 13A, read-out: inhibitory effects LNCaP.
The mark [11] stands for this setting: Table 13A, read-out: inhibitory effects PPC1.

Where two headings read alike, the source gives them in different places.

Take `COc1cc(C(=O)c2csc(Nc3ccccc3)n2)cc(OC)c1OC.Cl` [5Ha, (2-(phenylamino)thiazol-4-yl)(3,4,5-trimethoxyphenyl)methanone hydrochloride salt]: in data set [1], the “CL (systemic clearance)” value was 1.02 ± 0.18 L/h/kg; the “Vss (volume of distribution following intravenous dosing)” value was determined as 1.4 ± 0.2 L/kg; the “F (percent oral bioavailability), rat” value is 11%.

Consider `O=C(c1ccc(Cl)cc1)c1nc(-c2ccc(Cl)cc2)c[nH]1` [70s, (4-chlorophenyl)(4-(4-chlorophenyl)-1H-imidazol-2-yl)methanone], for which the IC50 in the data set with DU 145 (setting [4]), in the data set with PC-3 (setting [5]), in the data set on LNCaP (setting [6]) and in the data set with PPC-1 (setting [7]) was above 50 µM each time.

`COc1cc(/C(=N/O)c2csc(-c3ccccc3)n2)cc(OC)c1OC` [2e-cis, (Z)-(2-Phenylthiazol-4-yl)(3,4,5-trimethoxyphenyl)methanone oxime]: the “fold more activity than the comparator” value in data set [2] was 10 fold. In data set [3], the “half life in human liver microsome” value was determined as 35 min.

On to `CCCc1[nH]c(C(=O)c2cc(OC)c(OC)c(OC)c2)nc1-c1ccccc1` [70l, (4-phenyl-5-propyl-1H-imidazol-2-yl)(3,4,5-trimethoxyphenyl)methanone], for which the IC50 in the data set with DU 145 (setting [8]) turned out to be 16.4 µM; in the data set on PC-3 (setting [9]), 12.4 µM; with LNCaP (setting [10]), 3.09 µM; in the data set with PPC-1 (setting [11]), 11.4 µM.

`COc1cc(-c2csc(-c3ccccc3)n2)cc(OC)c1OC` [2i, 2-Phenyl-4-(3,4,5-trimethoxyphenyl)thiazole] displayed a half-life at 0.5 μM in data set [3] (human, liver microsomes, pH 7.4) of 32 min.

Consider `COc1cc(C(=O)c2nc(-c3ccccc3)c(C)[nH]2)cc(OC)c1OC` [70j, (5-methyl-4-phenyl-1H-imidazol-2-yl)(3,4,5-trimethoxyphenyl)methanone], for which the IC50 is 2 µM in the data set on DU 145 (setting [8]), 1.62 µM with PC-3 (setting [9]), 0.938 µM in the data set on LNCaP (setting [10]) and 0.86 µM in the data set on PPC-1 (setting [11]).

In the case of `COc1cc(C(=O)c2csc(Nc3ccc(F)cc3)n2)cc(OC)c1OC.Cl` [5Hc, (2-(p-fluorophenylamino)thiazol-4-yl)(3,4,5-trimethoxyphenyl)methanone hydrochloride salt], the IC50 with DU 145 (Table 6, read-out: IC50 ± SEM DU 145) stood at 0.07 µM; with PC-3 (Table 6, read-out: IC50 ± SEM PC-3), 0.053 µM; with LNCaP (Table 6, read-out: IC50 ± SEM LNCaP) it was 0.053 µM; in the data set with PPC-1 (Table 6, read-out: IC50 ± SEM PPC-1), 0.043 µM. Further, the “CL (systemic clearance)” value in data set [1] was found to be 0.78 ± 0.12 L/h/kg. Also, the “Vss (volume of distribution following intravenous dosing)” value in data set [1] is 1.4 ± 0.2 L/kg. Besides, the “F (percent oral bioavailability), rat” value in data set [1] came to 21%.

`Cc1ccc(C(=O)c2nc(-c3ccc(C)cc3)c[nH]2)cc1` [70v, p-tolyl(4-p-tolyl-1H-imidazol-2-yl)methanone]: the IC50 is 6.54 µM in the data set with DU 145 (setting [4]), 5.16 µM in the data set on PC-3 (setting [5]), 3.76 µM with LNCaP (setting [6]) and 2.41 µM with PPC-1 (setting [7]).

Take `COc1cc(C(=O)c2nc(-c3ccc(F)cc3)c[nH]2)cc(OC)c1OC` [70b, (4-(4-fluorophenyl)-1H-imidazol-2-yl)(3,4,5-trimethoxyphenyl)methanone]: the IC50 is 0.353 µM in the data set with DU 145 (setting [8]), 0.196 µM with PC-3 (setting [9]), 0.114 µM with LNCaP (setting [10]) and 0.013 µM with PPC-1 (setting [11]).

Take `COc1cc(C(=O)c2nc(-c3ccc(N(C)C)cc3)c[nH]2)cc(OC)c1OC` [70h, (4-(4-(dimethylamino)phenyl)-1H-imidazol-2-yl)(3,4,5-trimethoxyphenyl)methanone]: the IC50 in the data set on DU 145 (setting [8]) came to 0.263 µM; in the data set on PC-3 (setting [9]) it was 0.117 µM; in the data set on LNCaP (setting [10]), 0.096 µM; in the data set with PPC-1 (setting [11]), 0.12 µM.

In the case of `COc1cc(-c2c[nH]c(C(=O)c3ccc(Br)cc3)n2)cc(OC)c1OC` [70z, 4-bromophenyl(4-(3,4,5-trimethoxyphenyl)-1H-imidazol-2-yl)methanone], the IC50 was found to be 0.43 µM with DU 145 (setting [4]), 0.371 µM with PC-3 (setting [5]), 0.131 µM with LNCaP (setting [6]) and 0.107 µM with PPC-1 (setting [7]).
